Reference: patent publication US20100278858A1, “PROCESS FOR PREPARING […] STRAINS” (priority 2007, published 2010)
Values after ≈ are worked out from the molar mass of the structure shown.

Legend:
Assay in all cases: method of reducing viral plates (plaque reduction)
1C3-syn-14-1 = type: cell-based, HSV-1; settings: for IC50: Human alphaherpesvirus 1, strain 1C3 syn 14-1, read-out: IC50; for IC50 / Relative resistance (RR): Table VIII; for Relative resistance (RR): IC50 of clone 1C3 syn 14-1 / IC50 of HSV-1 (F); for susceptibility of variant to drug (in words): variant 1C3-syn-14-1
Method: (§1) According to the present invention, a method of reducing the viral plates comprises the following process: Vero cells monolayers developed in 24 wells microplates are infected with 50 UFP/well of virus in the absence or presence of different compounds concentrations. Each dilution is tested by duplicate. After 1 hour adsorption at 37° C., the inoculum is removed and covered by plating medium (culture media with methylcellulose at a final concentration of 0.7%). Inoculation is continued till the viral plates' appearance, which are then counted after fitting and dying the cells with violet crystal. Moreover, according to the present invention, 50% inhibitory concentration (IC50) means the compound concentration required for reducing about 50% the number of viral plates.
(§2) Compounds were present during the viral adsorption (1h, 37° C.) and after the infection. When a cytopathic action (ACP) between 80-90%, during a period among 24 to 72 hours p.i., was observed, cells were lysed with freeze-thawing cycles. In order to remove cellular moieties, the cellular lisate was centrifuged during 10 min at 1000 rpm, keeping the supernatant at −70° C. The supernatant was used to infect a new monolayer in the presence of SAMMA or PRO2000. […] The title and the IC50 of each viral passage was determined by viral plates reduction test (or after 2-3 passages) against SAMMA or PRO20000.

HSV-1 (F) = type: cell-based; settings: Human alphaherpesvirus 1; Table VIII; strain HSV-1 (F); read-out: IC50
Method: as §1, §2

1C3 syn 20-1 = type: cell-based, HSV-1; settings: for IC50: Human alphaherpesvirus 1, strain 1C3 syn 20-1, read-out: IC50; for Relative resistance (RR): IC50 of clone 1C3 syn 20-1 / IC50 of HSV-1 (F)
Method: as §1
(§3) Thus, preliminary tests of the cloned variants of passages with greater selection pressure of 1C3 (17, 20 and 21) with pyrimidine and purine analogous as aciclovir (ACV) and brivudin (BVDU) would disclose alterations at viral TK level as it is shown in Table VIII, a characteristic that, up to date, has not been published in previous art documents. The TK gene is not essential for the in vitro viral replication, though in vivo, is involved in the virulence, pathogenicity and reactivation since latency (Andrei G et al., 2005). […] Therefore, the selection pressure to which the viruses were subjected could have selected mutations in the TK gene and in additional superimposing genes generating strains with less in vivo pathogenic action (Jacobson J et al., 1993).

1C3 syn 21-1 = type: cell-based, HSV-1; settings: for IC50: Human alphaherpesvirus 1, strain 1C3 syn 21-1, read-out: IC50; for Relative resistance (RR): IC50 of clone 1C3 syn 21-1 / IC50 of HSV-1 (F)
Method: as §1, §3

1C3 syn 21-3 = type: cell-based, HSV-1; settings: for IC50: Human alphaherpesvirus 1, strain 1C3 syn 21-3, read-out: IC50; for Relative resistance (RR): IC50 of clone 1C3 syn 21-3 / IC50 of HSV-1 (F)
Method: as §1, §3

1C3 syn 20-3 = type: cell-based, HSV-1; settings: for IC50: Human alphaherpesvirus 1, strain 1C3 syn 20-3, read-out: IC50; for Relative resistance (RR): IC50 of clone 1C3 syn 20-3 / IC50 of HSV-1 (F)
Method: as §1, §3

1C3 syn 17-3 = type: cell-based, HSV-1; settings: for IC50: Human alphaherpesvirus 1, strain 1C3 syn 17-3, read-out: IC50; for Relative resistance (RR): IC50 of clone 1C3 syn 17-3 / IC50 of HSV-1 (F)
Method: as §1, §3

1C3 syn 17-1 = type: cell-based, HSV-1; settings: for IC50: Human alphaherpesvirus 1, strain 1C3 syn 17-1, read-out: IC50; for Relative resistance (RR): IC50 of clone 1C3 syn 17-1 / IC50 of HSV-1 (F)
Method: as §1, §3

1C3 syn 20-2 = type: cell-based, HSV-1; settings: for IC50: Human alphaherpesvirus 1; for Relative resistance (RR): IC50 of clone 1C3 syn 20-2 / IC50 of HSV-1 (F)
Method: as §1, §3

1C3 syn 17-2 = type: cell-based, HSV-1; settings: for IC50: Human alphaherpesvirus 1, strain 1C3 syn 17-2, read-out: IC50; for Relative resistance (RR): IC50 of clone 1C3 syn 17-2 / IC50 of HSV-1 (F)
Method: as §1, §3

1C3 syn 21-2 = type: cell-based, HSV-1; settings: for IC50: Human alphaherpesvirus 1, strain 1C3 syn 21-2, read-out: IC50; for Relative resistance (RR): IC50 of clone 1C3 syn 21-2 / IC50 of HSV-1 (F)
Method: as §1, §3

HSV-1 TK^− B2006 = type: cell-based; settings: for IC50: Human alphaherpesvirus 1; for Relative resistance (RR): IC50 of HSV-1 TK^− B2006 / IC50 of HSV-1 (F)
Method: as §1, §3

SMILES | IC50 (1C3-syn-14-1) [µg/mL] | Relative resistance (RR) (1C3-syn-14-1) | susceptibility of variant to drug (in words) (1C3-syn-14-1) | IC50 (HSV-1 (F)) [µg/mL] | IC50 (1C3 syn 20-1) [µg/mL] | Relative resistance (RR) (1C3 syn 20-1) | IC50 (1C3 syn 21-1) [µg/mL] | Relative resistance (RR) (1C3 syn 21-1) | IC50 (1C3 syn 21-3) [µg/mL] | Relative resistance (RR) (1C3 syn 21-3) | IC50 (1C3 syn 20-3) [µg/mL] | Relative resistance (RR) (1C3 syn 20-3) | IC50 (1C3 syn 17-3) [µg/mL] | Relative resistance (RR) (1C3 syn 17-3) | IC50 (1C3 syn 17-1) [µg/mL] | Relative resistance (RR) (1C3 syn 17-1) | IC50 (1C3 syn 20-2) [µg/mL] | Relative resistance (RR) (1C3 syn 20-2) | IC50 (1C3 syn 17-2) [µg/mL] | Relative resistance (RR) (1C3 syn 17-2) | further results
Nc1nc2c(ncn2COCCO)c(=O)[nH]1 [Aciclovir, aciclovir] | 0.1 (≈ 0.444 µM) | 2.0 | rare resistance | 0.05 (≈ 0.222 µM) | 0.4 (≈ 1.78 µM) | 8.0 | 0.2 (≈ 0.888 µM) | 4.0 | 0.2 (≈ 0.888 µM) | 4.0 | 0.2 (≈ 0.888 µM) | 4.0 | 0.2 (≈ 0.888 µM) | 4.0 | 0.28 (≈ 1.24 µM) | 5.6 | 0.2 (≈ 0.888 µM) | 4.0 | 0.2 (≈ 0.888 µM) | 4.0 | IC50 (1C3 syn 21-2): 0.4 µg/mL (≈ 1.78 µM); Relative resistance (RR) (1C3 syn 21-2): 8.0; IC50 (HSV-1 TK^− B2006): > 0.5 µg/mL; Relative resistance (RR) (HSV-1 TK^− B2006): 10.0
O=c1[nH]c(=O)n([C@H]2C[C@H](O)[C@@H](CO)O2)cc1/C=C/Br [Brivudin, brivudin] | 0.02 (≈ 0.06 µM) | 2.0 | rare resistance | 0.01 (≈ 0.03 µM) | 0.08 (≈ 0.24 µM) | 8.0 | 0.04 (≈ 0.12 µM) | 4.0 | 0.06 (≈ 0.18 µM) | 6.0 | 0.06 (≈ 0.18 µM) | 6.0 | 0.08 (≈ 0.24 µM) | 8.0 | 0.08 (≈ 0.24 µM) | 8.0 | 0.05 (≈ 0.15 µM) | 5.6 | 0.13 (≈ 0.39 µM) | 13.0 | IC50 (1C3 syn 21-2): 0.06 µg/mL (≈ 0.18 µM); Relative resistance (RR) (1C3 syn 21-2): 6.0; IC50 (HSV-1 TK^− B2006): > 0.16 µg/mL; Relative resistance (RR) (HSV-1 TK^− B2006): 16.0
